The subject of data set [1] is N87 (human gastric cancer cell NCI-N87). Nature of the data set: In vitro proliferation inhibition assay of cell lines (CellTiter-Glo), N87. The format is cell-based. The settings on record: N87 cells, 72 hours. The method in brief: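 Cells seeded overnight (BT-474 8.8×10^4 cells/mL, N87 6.6×10^4 cells/mL), then exposed to 9 compound concentrations in duplicate for 72 hours at 37° C, 5% CO2. Viability read by CellTiter-Glo luminescence.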
In general terms: In ATP-based viability assays light output follows the ATP content of the culture.

Data set [2] in a line: In vivo pharmacokinetics study in beagle dogs. As to conditions: male, beagle, dog, in vivo, po, 15 mg/kg. How it is done: 6 male beagle dogs (purchased from Beijing Marshall Biotechnology Co., Ltd., certificate No. SCXK (Beijing) 2016-0001) were divided into 2 groups with 3 dogs in each group, and all of the animals were fasted for about 12 hours before administration. One group was orally administrated with 15 mg/kg of the final product of Embodiment 22 (deionized water was added, followed by sonication for 29 minutes and stirring for 4 minutes, and a clear pale yellow dosing solution with a concentration of 3 mg/mL was prepared); the other group was orally administrated with 15 mg/kg of Pyrotinib (deionized water was added, followed by sonication for 28 minutes and stirring for 5 minutes, and a clear yellow dosing solution with a concentration of 3 mg/mL was prepared). Blood samples were collected before administration and at 15, 30, 60, 90, 120, 150, 180, 240, 360, 480, 720 and 1440 minutes respectively after administration.
1.0 mL of blood was collected from each animal through jugular vein puncture at each time point and heparin sodium was used for anticoagulation. The blood samples were collected and placed in labeled centrifuge tubes, and plasma was centrifuged (centrifugation conditions: 3500 rpm, 10 minutes, 2-8° C.). To 50 μL of plasma sample was added 300 μL of acetonitrile containing internal standard (Propranolol, 25 ng/mL) to precipitate the protain. After vortexing for 10 minutes and centrifuging at 6000 g for 20 minutes, 100 μL of supernatant was taken and injected into a 96-well plate. The drug concentration in plasma was determined by UPLC/MS-MS.

Another data set has as its target T1, CYP2C9 (Homo sapiens, UniProt P11712).
T1 construct: A system of 100 μL human liver microsomes; from tissue; host or cells: human liver microsomes
Nature of the data set: Direct inhibition (DI) of CYP2C9 in human liver microsomes. Type of data set: in vitro ADME. The settings on record: probe Diclofenac, human liver microsomes 0.2 mg/mL, 10 μM compound, read-out: Direct inhibition (DI) 2C9 (Diclofenac). The gist of the method: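 Pooled human liver microsomes (0.2 mg/mL) with 1 mM NADPH and 10 μM test compound were incubated for 20 min with a mixed probe-substrate cocktail (midazolam 10 μM, testosterone 100 μM, dextromethorphan 10 μM, diclofenac 20 μM, phenacetin 100 μM, mephenytoin 100 μM). Relative enzyme activity came from metabolite formation versus DMSO control.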
In general terms: Liver microsomes are a subcellular fraction often used to study metabolism.

A short description of data set [3]: In vivo pharmacokinetic study in mice. As to conditions: male, ICR, mouse, plasma, oral, 3 mg/kg intravenous, 10 mg/kg intragastric. How it is done: 24 male ICR mice weighing 18-22 g (provided by Shanghai Xipuerbikai Experimental Animal Co., Ltd, certificate No.: 20130016005759). The mice were fasted for feed but not water for 12-16 hours before the experiment. 24 mice were divided into 2 groups with 12 mice in each group. The first group was intravenously administrated with 3 mg/kg (which was dissolved by the ratio 0.9% physiological saline:PEG 400=8:2, to give a clear solution with a concentration of 0.3 mg/mL and a dosage volume of 10 mL/kg) of the final product of Embodiment 45. Blood samples were collected before administration and 2, 5, 15, 30, 60, 90, 120, 240, 360, 480, 600 and 1440 minutes after administration, respectively. The second group was intragastricly administrated with 10 mg/kg (0.5% CMC-Na was added and grounded into a uniform suspension with a concentration of 0.5 mg/mL and a dosage volume of 20 mL/kg) of the final product of Embodiment 45. […]
0.4 mL of blood was taken from fundus venous plexus of mice and rats into a heparinized centrifuge tube (10 μL heparin sodium solution/tube). […] After vortexing for 10 minutes and centrifuging at 6000 g and 4° C. for 10 minutes, the supernatant was diluted with mobile phase in a 96-well plate, and the drug concentration in plasma was determined by UPLC/MS-MS.

The IC50 is the concentration at which inhibition is half-maximal. In general, AUC refers to the area under the concentration-time curve, a measure of exposure. A higher AUC goes with high exposure. The term inhibition denotes the change of the read-out against control, counted positive when it falls. As usually defined, the bioavailability is the share of a dose that reaches the circulation, judged against a reference dose that is usually intravenous.

T1 sequence (P11712 whole entry): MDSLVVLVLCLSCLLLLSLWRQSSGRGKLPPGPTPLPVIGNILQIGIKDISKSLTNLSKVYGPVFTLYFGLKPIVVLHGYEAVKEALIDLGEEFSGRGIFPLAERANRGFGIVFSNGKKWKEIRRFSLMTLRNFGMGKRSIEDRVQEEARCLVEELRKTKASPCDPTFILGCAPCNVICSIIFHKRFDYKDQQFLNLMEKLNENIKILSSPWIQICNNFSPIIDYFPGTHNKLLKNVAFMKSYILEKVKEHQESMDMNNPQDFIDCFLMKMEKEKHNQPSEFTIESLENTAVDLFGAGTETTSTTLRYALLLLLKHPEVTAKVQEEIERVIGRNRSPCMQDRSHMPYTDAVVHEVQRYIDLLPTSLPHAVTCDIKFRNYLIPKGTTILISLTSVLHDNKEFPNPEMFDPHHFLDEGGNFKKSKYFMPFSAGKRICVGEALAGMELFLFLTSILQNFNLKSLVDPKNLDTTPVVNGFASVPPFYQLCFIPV

For the compound `CCOc1cc2ncnc(Nc3ccc(Oc4ccn5ncnc5c4)c(C)c3)c2cc1NC(=O)/C=C/[C@H]1CCCN1C` [Final product of Embodiment 22, (R,E)-N-(4-((4-([1,2,4]triazolo[1,5-a]pyridin-7-yloxy)-3-methylphenyl)amino)-7-ethoxyquinazolin-6-yl)-3-(1-methylpyrrolidin-2-yl)acrylamide], in data set [1], inhibition was half-maximal at 0.68 nM (IC50). Besides, in data set [2], the AUC was 5190 ng·h/mL and the “peak oral absorption concentration” value was 432.6 ng/mL. In addition, the inhibition at 20 min, 10 µM on CYP2C9 is 10%.

`CCOc1cc2ncnc(Nc3ccc(Oc4ccn5ncnc5c4)c(C)c3)c2cc1NC(=O)/C(F)=C/[C@H]1CCCN1C` [Final product of Embodiment 45]: half-maximal inhibition in data set [1] (IC50) was put at 1.3 nM. Moreover, the bioavailability in data set [3] was 87.7%. On CYP2C9, the inhibition at 20 min, 10 µM was below 0%.

The record behind these values is patent US11578074B2, “Nitrogenous heterocyclic compound, preparation method, intermediate, composition, and application” (SHANGHAI PHARMACEUTICALS HOLDING CO., LTD., priority 2017, dated 2023).
